Tests used:
[1] = molecular target: T1, CCR1 (125I-MIP-1α binding to THP-1 cell membranes) (Homo sapiens, UniProt P32246); test: THP-1 cell membrane 125I-MIP-1α binding assay; conditions: 0.1 to 0.2 nM 125I-MIP-1α, 60 min at room temperature, read-out: Inhibition of 125I-MIP-1α Binding to THP-1 Cell Membranes (Ki (nM))
T1 construct: Membranes were prepared from THP-1 cells (ATCC. #TIB202); host or cells: THP-1 cells (membrane preparation)
T1 sequence (P32246 1-355): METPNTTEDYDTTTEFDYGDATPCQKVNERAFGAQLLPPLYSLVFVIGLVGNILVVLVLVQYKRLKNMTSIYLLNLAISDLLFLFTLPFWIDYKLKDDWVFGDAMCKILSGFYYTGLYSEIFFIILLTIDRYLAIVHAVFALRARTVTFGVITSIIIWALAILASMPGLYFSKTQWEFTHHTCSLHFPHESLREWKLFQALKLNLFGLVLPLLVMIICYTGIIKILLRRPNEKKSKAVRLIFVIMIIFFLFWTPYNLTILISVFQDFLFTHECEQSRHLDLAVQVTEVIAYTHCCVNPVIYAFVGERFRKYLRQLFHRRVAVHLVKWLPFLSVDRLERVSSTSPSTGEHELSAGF
Source text: The activity of compounds of the present invention can be assessed using suitable assays, such as receptor binding assays or chemotaxis assays. For example, as described in the Examples, small molecule antagonists of […] binding have been identified utilizing THP-1 cells membranes. Specifically, a high through-put receptor binding assay, which monitors ^125I-MIP-1α binding to THP-1 cell membranes, was used to identify small molecule antagonists which block binding of MIP-1α. Compounds of the present invention can also be identified by virtue of their ability to inhibit the activation steps triggered by binding of a chemokine (e.g., CCL2 (MCP-1) CCL3 (MIP-1α), CCL4 (MIP-1β), CCL5 (RANTES), CCL7 (MCP-3), CCL8 (MCP-2), CCL13 (MCP-4), CCL14 (HCC-1), CCL15 (Lkn-1), CCL23 (MPIF-1)) to its receptor (CCR-1), such as chemotaxis, integrin activation and granule mediator release. They can also be identified by virtue of their ability to block chemokine (e.g., CCL2 (MCP-1) CCL3 (MIP-1α), CCL4 (MIP-1β), CCL5 (RANTES), CCL7 (MCP-3), CCL8 (MCP-2), CCL13 (MCP-4), CCL14 (HCC-1), CCL15 (Lkn-1), CCL23 (MPIF-1)) induced chemotaxis of, for example, HL-60 cells, T-cells, peripheral blood mononuclear cells or eosinophils.
Membranes were prepared from THP-1 cells (ATCC. #TIB202). Cells were harvested by centrifugation, washed twice with PBS (phosphate-buffered saline), and the cell pellets were frozen at −70 to −85° C. The frozen pellet was thawed in ice-cold lysis buffer consisting of 5 mM HEPES (N-2-hydroxyethylpiperazine-N′-2-ethane-sulfonic acid) pH 7.5, 2 mM EDTA (ethylenediaminetetraacetic acid), 5 μg/ml each aprotinin, leupeptin, and chymostatin (protease inhibitors), and 100 μg/ml PMSF (phenyl methane sulfonyl fluoride—also a protease inhibitor), at a concentration of 1 to 5×10^7 cells/ml. This procedure results in cell lysis. The suspension was mixed well to resuspend all of the frozen cell pellet. Nuclei and cell debris were removed by centrifugation of 400×g for 10 minutes at 4° C. The supernatant was transferred to a fresh tube and the membrane fragments were collected by centrifugation at 25,000×g for 30 minutes at 4° C. The supernatant was aspirated and the pellet was resuspended in freezing buffer consisting of 10 mM HEPES pH 7.5, 300 mM sucrose, 1 μg/ml each aprotinin, leupeptin, and chymostatin, and 10 μg/ml PMSF (approximately 0.1 ml per each 10^8 cells). All clumps were resolved using a minihomogenizer, and the total protein concentration was determined using a protein assay kit (Bio-Rad, Hercules, Calif., cat #500-0002). […]
Binding Assays utilized the membranes described above. […] The filters were rinsed with approximately 600 μl of binding buffer containing 0.5 M NaCl, dried, and the amount of bound radioactivity was determined by scintillation counting.

[2] = test system: neutrophil recruitment in response to murine MIP-1α; test: In vivo efficacy model: neutrophil recruitment in response to MIP-1α (MPO activity in skin biopsies); parameters: species or system guinea pig; conditions: for oral bioavailability and efficacy in comparison to the Reference Example: guinea pig, comparison in words; for oral bioavailability and efficacy in comparison to the Reference Example / ED50: oral; for ED50: 30 minutes prior to intradermal murine MIP-1α (100 pmol/site), read-out: Efficacy: Guinea Pig Neutrophil Recruitment (ED50 (mg/kg))
Protocol: An animal model of neutrophil recruitment in response to MIP-1α was used to evaluate the biological/pharmacodynamic activity of the compounds. Compounds were administered to female Hartley guinea pigs orally (doses ranged from about 0.5 mg/kg to about 5.0 mg/kg) 30 minutes prior to intradermal injections of murine MIP-1α (100 pmol/site) or phosphate buffered saline (PBS). Skin punch biopsies were taken 5 hours later and processed for myeloperoxidase (MPO) measurements. MPO activity was used as an indicator for neutrophil recruitment to the injection site.

[3] = test system: other G protein-coupled receptors and ion channels; test: Selectivity on other G protein-coupled receptors and ion channels; conditions: assayed on other G protein-coupled receptors and ion channels; comparison in words
[4] = Cavia porcellus, Neutrophil, female Hartley guinea pigs, MPO at 5 hours

Row | SMILES | Ki [1] [nM] | inhibition at 2.5 mg/kg ([2]; Cavia porcellus, Neutrophil, at 2.5 mg/kg oral, female Hartley guinea pigs, intradermal murine MIP-1α, MPO at 5 hours, read-out: Efficacy: Guinea Pig Neutrophil Recruitment, % inhibition) [%] | oral bioavailability and efficacy in comparison to the Reference Example [2] | selectivity compared to structurally related compounds [3] | ED50 [2, 4] [mg/kg]
1 | CC1(C)CN(CC/C=C2/c3cc(C(=O)O)ccc3OCc3ncccc32)CCC1(O)c1ccc(Cl)cc1 (racemic) [Example 3, racemic-5-{3-[4-(4-Chloro-phenyl)-4-hydroxy-3,3-dimethyl-piperidin-1-yl]-propylidene}-5,11-dihydro-10-oxa-1-aza-dibenzo[a,d]cycloheptene-7-carboxylic acid] | 3 | 99 | greater oral bioavailability and efficacy | greater selectivity | 
2 | CC1(C)CN(CCC=C2c3cc(C(=O)O)ccc3OCc3ncccc32)CC[C@]1(O)c1ccc(Cl)cc1 [Example 1, (S)-5-{3-[4-(4-Chloro-phenyl)-4-hydroxy-3,3-dimethyl-piperidin-1-yl]-propylidene}-5,11-dihydro-10-oxa-1-aza-dibenzo[a,d]cycloheptene-7-carboxylic acid] | 2.3 |  | greater oral bioavailability and efficacy | greater selectivity | 0.12
3 | CC1(C)CN(CCC=C2c3cc(C(=O)O)ccc3OCc3ncccc32)CC[C@@]1(O)c1ccc(Cl)cc1 [Example 2, (R)-5-{3-[4-(4-Chloro-phenyl)-4-hydroxy-3,3-dimethyl-piperidin-1-yl]-propylidene}-5,11-dihydro-10-oxa-1-aza-dibenzo[a,d]cycloheptene-7-carboxylic acid] | > 1000 |  |  |  | 
4 | O=C(O)c1ccc2c(c1)/C(=C/CCN1CCC(O)(c3ccc(Cl)cc3)CC1)c1cccnc1CO2 [Reference Example, reference compound] | 7.8 |  |  |  | 3.6

— patent US9334283B2, “CCR1 antagonists and methods of use thereof” (Millennium Pharmaceuticals, Inc., priority 2002, dated 2016)
